Values joined by “and” are separate entries in the source; they are usually repeats but may differ in a detail not shown here. Equal entries are not always repeated.
Test system: 883617-216-R-J1-PDC complex spheroid viability
Test: Anticancer human tumor 883617-216-R-J1-PDC patient-derived bladder carcinoma cell line growth inhibition
Details: for viability, T/C: stronger effect = lower value
Summary of the method: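 Multicellular complex spheroids of tumor cells with human endothelial cells (HUVEC) and mesenchymal stem cells; the LSD1 inhibitor iadademstat was combined with standard-of-care or investigational agents. Top concentration at or near clinical Cmax, half-log dilutions; final DMSO ≤0.25%.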

[1] = curve of first compound, second compound 0.1 µM
[2] = curve of first compound, second compound 0.316 µM
[3] = curve of first compound, second compound 1 µM
[4] = curve of first compound, second compound 3.16 µM
[5] = curve of first compound, second compound 10 µM
[6] = second compound 0.1 µM, first compound 0.0316 µM
[7] = second compound 0.1 µM, first compound 0.1 µM
[8] = second compound 0.1 µM, first compound 0.316 µM
[9] = second compound 0.1 µM, first compound 1 µM
[10] = second compound 0.1 µM, first compound 3.16 µM
[11] = second compound 0.1 µM, first compound 10 µM
[12] = second compound 0.316 µM, first compound 0.0316 µM
[13] = second compound 0.316 µM, first compound 0.1 µM
[14] = second compound 0.316 µM, first compound 0.316 µM
[15] = second compound 0.316 µM, first compound 1 µM
[16] = second compound 0.316 µM, first compound 3.16 µM
[17] = second compound 0.316 µM, first compound 10 µM
[18] = second compound 1 µM, first compound 0.0316 µM
[19] = second compound 1 µM, first compound 0.1 µM
[20] = second compound 1 µM, first compound 0.316 µM
[21] = second compound 1 µM, first compound 1 µM
[22] = second compound 1 µM, first compound 3.16 µM
[23] = second compound 1 µM, first compound 10 µM
[24] = second compound 3.16 µM, first compound 0.0316 µM
[25] = second compound 3.16 µM, first compound 0.1 µM
[26] = second compound 3.16 µM, first compound 0.316 µM
[27] = second compound 3.16 µM, first compound 1 µM
[28] = second compound 3.16 µM, first compound 3.16 µM
[29] = second compound 3.16 µM, first compound 10 µM
[30] = second compound 10 µM, first compound 0.0316 µM
[31] = second compound 10 µM, first compound 0.1 µM
[32] = second compound 10 µM, first compound 0.316 µM
[33] = second compound 10 µM, first compound 1 µM
[34] = second compound 10 µM, first compound 3.16 µM
[35] = second compound 10 µM, first compound 10 µM
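Also: exposure lasted seven days after three days of spheroid growth.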
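For viability, T/C in this document: 100% = DMSO vehicle control luminescence.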

CC(C)c1c(-c2ccccc2)nc2c(C#N)c[nH]n2c1=O + NC1CC1c1ccc(-c2cccc(O)c2)cc1
IC50 [1]: > 10 µM | IC50 [2]: > 10 µM | IC50 [3]: > 10 µM | IC50 [4]: > 10 µM | IC50 [5]: > 10 µM | viability, T/C [6]: 110% | viability, T/C [7]: 118% | viability, T/C [8]: 119% | viability, T/C [9]: 109% | viability, T/C [10]: 113% | viability, T/C [11]: 96% | viability, T/C [12]: 114% | viability, T/C [13]: 126% | viability, T/C [14]: 122% | viability, T/C [15]: 122% | viability, T/C [16]: 94.8% | viability, T/C [17]: 108% | viability, T/C [18]: 132% | viability, T/C [19]: 119% | viability, T/C [20]: 116% | viability, T/C [21]: 117% | viability, T/C [22]: 102% | viability, T/C [23]: 109% | viability, T/C [24]: 124% | viability, T/C [25]: 117% | viability, T/C [26]: 105% | viability, T/C [27]: 104% | viability, T/C [28]: 100% | viability, T/C [29]: 94.4% | viability, T/C [30]: 100% | viability, T/C [31]: 93.2% | viability, T/C [32]: 79.8% | viability, T/C [33]: 89.9% | viability, T/C [34]: 96.2% | viability, T/C [35]: 85.3%

COc1cc(C2c3cc4c(cc3C(OC3OC5COC(C)OC5C(O)C3O)C3COC(=O)C23)OCO4)cc(OC)c1O (configuration not stated) + NC1CCC(NC2CC2c2ccccc2)CC1
IC50 [1]: 0.377 µM | IC50 [2]: 0.645 µM | IC50 [3]: 0.83 µM | IC50 [4]: 0.587 µM | IC50 [5]: 1.75 µM | viability, T/C (second compound 0.1 µM, first compound 0.00949 µM): 96.9% | viability, T/C (second compound 0.1 µM, first compound 0.03 µM): 94.1% | viability, T/C (second compound 0.1 µM, first compound 0.0949 µM): 72.5% | viability, T/C (second compound 0.1 µM, first compound 0.3 µM): 51.6% | viability, T/C (second compound 0.1 µM, first compound 0.949 µM): 45.8% | viability, T/C (second compound 0.1 µM, first compound 3 µM): 38.3% | viability, T/C (second compound 0.316 µM, first compound 0.00949 µM): 101% | viability, T/C (second compound 0.316 µM, first compound 0.03 µM): 94% | viability, T/C (second compound 0.316 µM, first compound 0.0949 µM): 80.1% | viability, T/C (second compound 0.316 µM, first compound 0.3 µM): 51.4% | viability, T/C (second compound 0.316 µM, first compound 0.949 µM): 54% | viability, T/C (second compound 0.316 µM, first compound 3 µM): 43.4% | viability, T/C (second compound 1 µM, first compound 0.00949 µM): 104% | viability, T/C (second compound 1 µM, first compound 0.03 µM): 83% | viability, T/C (second compound 1 µM, first compound 0.0949 µM): 67.3% | viability, T/C (second compound 1 µM, first compound 0.3 µM): 56.2% | viability, T/C (second compound 1 µM, first compound 0.949 µM): 49.2% | viability, T/C (second compound 1 µM, first compound 3 µM): 44.6% | viability, T/C (second compound 3.16 µM, first compound 0.00949 µM): 106% | viability, T/C (second compound 3.16 µM, first compound 0.03 µM): 95.5% | viability, T/C (second compound 3.16 µM, first compound 0.0949 µM): 70.9% | viability, T/C (second compound 3.16 µM, first compound 0.3 µM): 53.2% | viability, T/C (second compound 3.16 µM, first compound 0.949 µM): 51.8% | viability, T/C (second compound 3.16 µM, first compound 3 µM): 41.8% | viability, T/C (second compound 10 µM, first compound 0.00949 µM): 122% | viability, T/C (second compound 10 µM, first compound 0.03 µM): 99.8% | viability, T/C (second compound 10 µM, first compound 0.0949 µM): 75.4% | viability, T/C (second compound 10 µM, first compound 0.3 µM): 60.2% | viability, T/C (second compound 10 µM, first compound 0.949 µM): 56.4% | viability, T/C (second compound 10 µM, first compound 3 µM): 45.6%

CCc1c2c(nc3ccc(O)cc13)-c1cc3c(c(=O)n1C2)COC(=O)[C@]3(O)CC
viability, T/C (compound 0.000949 µM): 34.5% and 24.9% | viability, T/C (compound 0.003 µM): 27.7% and 18.2% | viability, T/C (compound 0.00949 µM): 22.8% and 18.7% | viability, T/C (compound 0.03 µM): 24.2% and 13% | viability, T/C (compound 0.0949 µM): 1.74% and 0.3% | viability, T/C (compound 0.3 µM): 0.21% and 0.19% | IC50 (curve of compound): < 0.000949 µM

CC1(C)CCC(CN2CCN(c3ccc(C(=O)NS(=O)(=O)c4ccc(NCC5CCOCC5)c([N+](=O)[O-])c4)c(Oc4cnc5[nH]ccc5c4)c3)CC2)=C(c2ccc(Cl)cc2)C1 + NC1CCC(NC2CC2c2ccccc2)CC1
IC50 [1]: 7.33 µM | IC50 [2]: 7.54 µM | IC50 [3]: 7.34 µM | IC50 [4]: 7.34 µM | IC50 [5]: 7.1 µM | viability, T/C [6]: 108% | viability, T/C [7]: 114% | viability, T/C [8]: 109% | viability, T/C [9]: 104% | viability, T/C [10]: 109% | viability, T/C [11]: 28.3% | viability, T/C [12]: 111% | viability, T/C [13]: 106% | viability, T/C [14]: 122% | viability, T/C [15]: 109% | viability, T/C [16]: 125% | viability, T/C [17]: 28.9% | viability, T/C [18]: 105% | viability, T/C [19]: 110% | viability, T/C [20]: 118% | viability, T/C [21]: 110% | viability, T/C [22]: 113% | viability, T/C [23]: 27.4% | viability, T/C [24]: 104% | viability, T/C [25]: 114% | viability, T/C [26]: 110% | viability, T/C [27]: 114% | viability, T/C [28]: 120% | viability, T/C [29]: 27% | viability, T/C [30]: 107% | viability, T/C [31]: 102% | viability, T/C [32]: 108% | viability, T/C [33]: 110% | viability, T/C [34]: 118% | viability, T/C [35]: 24.8%

Reference: PubChem BioAssay AID1918945 (Molecular Pharmacology Branch, DTP, NCI, 2023)
